Measurements reported in patent US8829185B2 (Bayer HealthCare LLC, priority 2005, dated 2014).

What was measured:
MDA-MB-231 cells = test: Tumor cell proliferation (Alamar Blue), MDA-MB-231; format: cell-based; conditions: Homo sapiens, MDA-MB-231, 72 h
Experimental: (§1) Human tumor cells (e.g., HCT116 or MDA-MB-231 cells), were seeded in a Costar 96-well plate at 3.0×10^3 cells/well and grown in 150 μl of RPMI complete media (Invitrogen Corporation, Grand Island, N.Y.) containing 10% fetal bovine serum (Hyclone, Logan, Utah) at 37° C. for 16 h in an incubator with 5% CO2. To each well, 50 μl of additional growth media containing 40 μM to 18 nM concentrations of compound with 0.4% DMSO was added. Cells were grown for another 72 h at 37° C. with 5% CO2. 20 μl of Alamar Blue (Trek Diagnostic Systems, Inc., Cleveland, Ohio) reagent was added to each well and incubated for 3 h at 37° C. Plates were read in a SpectraMax Gemini (Molecular Devices, CA) with 544 nm excitation and 590 nm emission wavelength. IC50 values were determined by linear regression analysis of log drug concentration versus percent inhibition.

[1] = tested on: histone 3 phosphorylation in colon carcinoma (HCT116); test: p-Histone3 assay; format: cell-based; conditions: Homo sapiens, HCT-116, 24 h, HCT116, 24 hours treatment
Experimental: Compounds were assayed for the inhibition of histone 3 phosphorylation in colon carcinoma (HCT116). Briefly, 20,000 cells/well were seeded in a 96-well black-walled, poly-d-lysine plates in RPMI+10% FBS and incubated at 37° C. in 5% CO2 overnight. The following day, the cells were treated with compounds for 24 hours at 37° C. Following compound treatment; plates were centrifuged at 1000 rpm for 2 minutes and washed twice with 100 μl of cold sterile TBS. Cells were then fixed with cold 3.7% formaldehyde in TBS (4° C. for 1 hour) and then permeabalized with 0.1% Triton-X-100 in TBS (room temperature for 30 minutes). Plates were then washed with of 0.25% BSA-TBS and blocked with BSA solution for 1 hour at room temperature while shaking. The supernatant was removed and replaced with diluted primary antibody (anti-phospho-histone 3, serine 10, Cell Signaling) at 1:250 in 0.25% BSA-TBS and incubated overnight at 4° C. The plates were washed and treated with diluted secondary antibody (anti-rabbit Eu-labeled) at 1:10000 in 0.25% BSA-TBS (room temperature for 1 hour). The antibody solution was removed from each well and washed eight times. The wash buffer was replaced with 50 μl pre-warmed enhancement solution and mixed on the orbital shaker for 10 minutes. Fluorescence was detected with a Victor V Fluorescence Detector. The data are expressed as percent inhibition: % inhibition=100−((Signal with inhibitor-background)/(Signal without inhibitor-background))×100.

FGFR1-GST = molecular target: T1, FGFR1-GST (Homo sapiens, UniProt P11362); test: FGFR-1 TR-FRET biochemical assay; conditions: bounds given in nM
T1 construct: GST; made in house
T1 sequence (P11362 22-822): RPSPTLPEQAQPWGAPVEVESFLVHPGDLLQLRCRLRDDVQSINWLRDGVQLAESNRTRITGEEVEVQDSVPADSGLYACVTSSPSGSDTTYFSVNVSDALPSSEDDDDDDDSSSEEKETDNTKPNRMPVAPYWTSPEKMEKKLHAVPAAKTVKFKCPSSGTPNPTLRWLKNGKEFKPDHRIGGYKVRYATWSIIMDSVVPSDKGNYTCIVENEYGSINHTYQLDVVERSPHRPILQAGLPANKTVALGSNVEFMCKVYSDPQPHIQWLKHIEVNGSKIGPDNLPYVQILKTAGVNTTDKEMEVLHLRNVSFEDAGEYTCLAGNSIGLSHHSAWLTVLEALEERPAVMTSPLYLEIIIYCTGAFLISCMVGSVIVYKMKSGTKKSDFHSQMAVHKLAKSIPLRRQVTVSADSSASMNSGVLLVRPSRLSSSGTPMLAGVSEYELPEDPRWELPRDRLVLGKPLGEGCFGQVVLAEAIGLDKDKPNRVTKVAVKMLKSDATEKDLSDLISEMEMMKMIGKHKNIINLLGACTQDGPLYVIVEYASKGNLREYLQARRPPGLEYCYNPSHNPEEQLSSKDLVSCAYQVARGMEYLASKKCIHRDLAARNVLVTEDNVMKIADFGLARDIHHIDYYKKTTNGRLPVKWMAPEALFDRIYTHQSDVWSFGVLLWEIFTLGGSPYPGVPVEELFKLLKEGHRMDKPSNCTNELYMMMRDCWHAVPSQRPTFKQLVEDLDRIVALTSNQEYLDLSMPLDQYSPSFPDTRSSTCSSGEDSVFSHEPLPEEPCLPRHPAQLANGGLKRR
Outline: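 LANCE TR-FRET with 5 nM FGFR1-GST, 0.6 uM ATP, 25 nM biotin-poly GT in HEPES pH 7.5/MgCl2, 1% DMSO; compound added before enzyme, 1 h at room temperature. 665/615 nm ratio, background without ATP; % inhibition over 10 μM–0.128 nM final for IC50.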

HCT116 cells = test: Tumor cell proliferation (Alamar Blue), HCT116; format: cell-based; conditions: Homo sapiens, HCT-116, 72 h, HCT116, 72 h
Experimental: as §1

| IC50 (MDA-MB-231 cells; lower bound in nM) [nM] | IC50 (MDA-MB-231 cells; upper bound given in μM) [nM] | IC50 ([1]; bounds given in μM) [µM] | IC50 ([1]; lower bound in nM) [µM] | IC50 (FGFR1-GST) [nM] | IC50 (HCT116 cells; lower bound in nM) [nM] | IC50 (HCT116 cells; upper bound given in μM) [nM] | SMILES |
| --- | --- | --- | --- | --- | --- | --- | --- |
| > 500 | < 5000 | < 5 | > 0.5 | 10 to 100 | > 500 | < 4000 | N#Cc1c(C(=O)NCC(F)(F)F)c(-c2ccc(NC(=O)Nc3cc(C(F)(F)F)ccn3)cc2)c2c(N)ncnn12 [Example 7, 4-amino-7-cyano-N-(2,2,2-trifluoroethyl)-5-{4-[({[4-(trifluoromethyl)pyridin-2-yl]amino}carbonyl)-amino]phenyl}pyrrolo[2,1-f][1,2,4]triazine-6-carboxamide] |
| > 500 | < 5000 | < 5 | > 0.5 | 10 to 100 | > 500 | < 4000 | COCc1c(-c2ccc(NC(=O)Nc3cc(C(F)(F)F)ccc3F)cc2)c2c(N)ncnn2c1CN1CCN(C)CC1 [Example 13, N-(4-{4-amino-6-(methoxymethyl)-7-[(4-methylpiperazin-1-yl)methyl]pyrrolo[2,1-f][1,2,4]triazin-5-yl}phenyl)-N′-[2-fluoro-5-(trifluoro-methyl)phenyl]urea] |
| > 500 | < 5000 | 5 to 10 |  | < 10 | > 500 | < 4000 | COCc1c(-c2ccc(NC(=O)Nc3cc(C(F)(F)F)ccc3F)cc2)c2c(N)ncnn2c1CN1CCOCC1 [Example 12, N-{4-[4-amino-6-(methoxymethyl)-7-(morpholin-4-ylmethyl)pyrrolo[2,1-f][1,2,4]triazin-5-yl]phenyl}-N′-[2-fluoro-5-(trifluoromethyl)phenyl]urea] |
